# Columns and labels:
# [1] = Metabolic stability in human liver microsomes; type: in vitro ADME; details: for stability in human liver microsomes: 30 minute incubation
# Description: (§1) Human liver microsomes (20 mg/mL) and rat liver microsomes (20 mg/mL) were obtained from Xenotech, LLC (Lenexa, Kans.). β-nicotinamide adenine dinucleotide phosphate, reduced form (NADPH), magnesium chloride (MgCl2), and dimethyl sulfoxide (DMSO) were purchased from Sigma-Aldrich. 7.5 mM stock solutions of test compounds (L-838417, Compound 101, Compound 103, Compound 104 and Compound 105) were prepared in DMSO. The 7.5 mM stock solutions were diluted to 12.5 μM in acetonitrile (ACN). The 20 mg/mL […] were diluted to […] in 0.1 M potassium phosphate buffer, pH 7.4, containing 3 mM MgCl2. The diluted microsomes (375 μL) were added to wells of a 96-well deep-well polypropylene plate in triplicate. 10 μL of the 12.5 μM test compound was added to the microsomes and the mixture was pre-warmed for 10 minutes. Reactions were initiated by addition of 125 μL pre-warmed NADPH solution. The final reaction volume is 0.5 mL and contained 0.5 mg/mL human liver microsomes, 0.25 μM test compound, and 2 mM NADPH in 0.1 M potassium phosphate buffer, pH 7.4, and 3 mM MgCl2. The reaction mixtures are incubated at 37° C., and 50 μL aliquots were removed at 0, 5, 10, 20, and 30 minutes and added to shallow-well 96-well plates which contained 50 μL of ice-cold ACN with internal standard to stop the reactions. The plates were stored at 4° C. for 20 minutes after which 100 μL of water was added to the wells of the plate before centrifugation to pellet precipitated proteins. Supernatants were transferred to another 96-well plate and analyzed for amounts of parent remaining by LC-MS/MS using an Applied Bio-systems API 4000 mass spectrometer. 7-ethoxycoumarin (1 μM) was used as a positive control. The in vitro t1/2s for test compounds were calculated from the slopes of the linear regression of % parent remaining (ln) vs incubation time relationship, using the formula: in vitro t1/2=0.693/k, where k=−[slope of linear regression of % parent remaining(ln) vs incubation time] Data analysis is performed using Microsoft Excel Software.
# [2] = Metabolic stability in rat liver microsomes; type: in vitro ADME; details: for parent compound remained intact / stability in rat microsomes: 30 minutes incubation; for half-life at 0.25 µM: pH 7.4, calculated from slope of ln % parent remaining vs time, read-out: in vitro half-life
# Description: as §1
# [3] = Pharmacokinetics after intravenous administration to rats; type: in vivo, Sprague-Dawley rats; details: for clearance / half-life / AUC(0-t): rat, plasma, 1 mg/kg each as 1:1:1 mixture, male Sprague-Dawley rats; for AUC(0-t): read-out: AUC0-6; for AUC0-6 % Change over L-838417 / AUC0-6 relative to undeuterated L-838417 / CL % Change over L-838417 / cleared more slowly than L-838417 / longer half-life than undeuterated L-838417 / t1/2 % Change over L-838417: rats
# Description: (§2) Three male Sprague-Dawley rats (200-250 g each) were cannulated in the jugular vein and were administered a single dose containing 1 mg/kg each of L-838417, Compound 103 and Compound 105 (as a 1:1:1 mixture containing 1 mg/mL of each of the three compounds in 10% dimethyl sulfoxide (DMSO), 10% N,N-dimethylacetamide (DMA), and 60% polyethylene glycol (PG) through the jugular cannula. Three additional male Sprague-Dawley rats (200-250 g each) were administered a single dose containing 1 mg/kg each of L-838417, Compound 103 and Compound 105 (as a 1:1:1 mixture containing 1 mg/mL of each of the three compounds in 10% dimethyl sulfoxide (DMSO), 10% N,N-dimethylacetamide (DMA), and 60% polyethylene glycol (PG) by oral gavage. Blood (0.25 mL) from intravenously treated test rats was collected retro-orbitally at 2, 5, 15, and 30 minutes, and 1, 2, 4, and 6 hours post-dosing. Blood (0.25 mL) from orally treated test rats was collected retro-orbitally at 5, 15, 30, and 45 minutes, and 1, 2, 4, and 6 hours post-dosing. Blood was collected into tubes containing K2EDTA as anticoagulant at the above mentioned time points. Blood samples were stored on ice and then centrifuged to obtain plasma. The plasma (˜[…]) was aliquoted into deep 96-well plates and stored at −80° C. until analysis by LC-MS/MS using an Applied Bio-systems API 4000 mass spectrometer.
# [4] = Pharmacokinetics after oral administration to rats; type: in vivo, Sprague-Dawley rats; details: for AUC0-6 % Change over L-838417 / AUC0-6 relative to undeuterated L-838417 / Cmax % Change over L-838417 / Cmax relative to L-838417: oral, rats; for Cmax / AUC(0-t): rat, plasma, oral gavage, 1 mg/kg each as 1:1:1 mixture, male Sprague-Dawley rats; for AUC(0-t): read-out: AUC0-6
# Description: as §2
smiles,measurement,setting,value
"[2H]C([2H])(Oc1nn2c(-c3cc(F)ccc3F)nnc2cc1C(C)(C)C)c1ncnn1C([2H])([2H])[2H] [Compound 101, 7-tert-Butyl-3-(2,5-difluorophenyl)-6-((1-(methyl-d3)-1H-1,2,4-triazol-5-yl)-1,1-d2-methoxy)-[1,2,4]triazolo[4,3-b]pyridazine]",stability in human liver microsomes,[1],stable
same,parent compound remained intact,[2],approximately 70%
same,half-life at 0.25 µM,[2],52.7 min
"[2H]C([2H])([2H])C(c1cc2nnc(-c3cc(F)ccc3F)n2nc1OCc1ncnn1C)(C([2H])([2H])[2H])C([2H])([2H])[2H] [Compound 103, 7-(tert-Butyl-d9)-3-(2,5-difluorophenyl)-6-((1-methyl-1H-1,2,4-triazol-5-yl)methoxy)-[1,2,4]triazolo[4,3-b]pyridazine]",stability in human liver microsomes,[1],stable
same,stability in rat microsomes,[2],stable
same,clearance,[3],8 mL/min/kg
same,half-life,[3],75 ± 8.4 min
same,AUC(0-t),[3],1920 ± 200 ng·h/mL
same,AUC0-6 % Change over L-838417,[3],+131%
same,AUC0-6 relative to undeuterated L-838417,[3],greater than two-fold higher
same,CL % Change over L-838417,[3],−62%
same,cleared more slowly than L-838417,[3],approximately 60%
same,longer half-life than undeuterated L-838417,[3],approximately 80%
same,t1/2 % Change over L-838417,[3],+79%
same,AUC0-6 % Change over L-838417,[4],+156%
same,AUC0-6 relative to undeuterated L-838417,[4],greater than two and a half-fold higher
same,Cmax % Change over L-838417,[4],+116%
same,Cmax relative to L-838417,[4],greater than two-fold higher
same,Cmax,[4],277 ± 76 ng/mL
same,AUC(0-t),[4],1260 ± 289 ng·h/mL
"[2H]C([2H])([2H])n1ncnc1COc1nn2c(-c3cc(F)ccc3F)nnc2cc1C(C([2H])([2H])[2H])(C([2H])([2H])[2H])C([2H])([2H])[2H] [Compound 104, 7-(tert-Butyl-d9)-3-(2,5-difluorophenyl)-6-((1-(methyl-d3)-1H-1,2,4-triazol-5-yl)-methoxy)-[1,2,4]triazolo[4,3-b]pyridazine]",stability in human liver microsomes,[1],stable
same,stability in rat microsomes,[2],stable
"[2H]C([2H])(Oc1nn2c(-c3cc(F)ccc3F)nnc2cc1C(C([2H])([2H])[2H])(C([2H])([2H])[2H])C([2H])([2H])[2H])c1ncnn1C([2H])([2H])[2H] [Compound 105, 7-(tert-Butyl-d9)-3-(2,5-difluorophenyl)-6-((1-(methyl-d3)-1H-1,2,4-triazol-5-yl)-1,1-d2-methoxy)-[1,2,4]triazolo[4,3-b]pyridazine]",stability in human liver microsomes,[1],stable
same,stability in rat microsomes,[2],stable
same,clearance,[3],7.67 mL/min/kg
same,half-life,[3],76.2 ± 8.4 min
same,AUC(0-t),[3],1960 ± 190 ng·h/mL
same,AUC0-6 % Change over L-838417,[3],+136%
same,AUC0-6 relative to undeuterated L-838417,[3],greater than two-fold higher
same,CL % Change over L-838417,[3],−60%
same,cleared more slowly than L-838417,[3],approximately 60%
same,longer half-life than undeuterated L-838417,[3],approximately 80%
same,t1/2 % Change over L-838417,[3],+81%
same,AUC0-6 % Change over L-838417,[4],+154%
same,AUC0-6 relative to undeuterated L-838417,[4],greater than two and a half-fold higher
same,Cmax % Change over L-838417,[4],+119%
same,Cmax relative to L-838417,[4],greater than two-fold higher
same,Cmax,[4],280 ± 80 ng/mL
same,AUC(0-t),[4],1250 ± 272 ng·h/mL
"Cn1ncnc1COc1nn2c(-c3cc(F)ccc3F)nnc2cc1C(C)(C)C [Compound L-838417, 7-tert-butyl-3-(2,5-difluorophenyl)-6-(1-methyl-1H-1,2,4-triazol-5-ylmethoxy)[1,2,4]triazolo[4,3-b]pyridazine, reference compound]",parent compound remained intact,"[1]; 30 minutes incubation, 0.25 μM test compound, 37° C.",approximately 70%
same,half-life at 0.25 µM,"[1]; pH 7.4, calculated from slope of ln % parent remaining vs time, read-out: in vitro half life",54.4 min
same,parent compound remained intact,[2],approximately 70%
same,half-life at 0.25 µM,[2],50.5 min
same,clearance,[3],18.3 mL/min/kg
same,half-life,[3],42 ± 2.4 min
same,AUC(0-t),[3],831 ± 86 ng·h/mL
same,Cmax,[4],128 ± 40 ng/mL
same,AUC(0-t),[4],491 ± 95 ng·h/mL

# From patent US8921366B2, “Substituted triazolo-pyridazine derivatives” (Concert Pharmaceuticals, Inc., priority 2008, dated 2014)
